{
  "source": "patent US5814612A",
  "about": "“Retinol derivatives and uses thereof” (priority 1992, dated 1998)",
  "key": {"[1]": {"tested_on": "thymocytes", "assay": "Proliferation of anti-CD3 activated thymocytes in serum-free ITLB medium", "format": "cell-based, BALB/c mouse", "details": "for effectiveness relative to retinol: anti-CD3, 14HRR at 12 hour intervals; for proliferative response of anti-CD3e activated thymocytes / growth kinetics over four days: retinol 3×10^-6 M, 14HRR 6×10^-7 M, human serum 3%; for growth kinetics over four days: 10^5 cells/well", "experimental": "FIG. 14A: Purified BALB/c thymocytes were activated with immobilized anti-CD3e antibody and cultivated for four days in ITLB medium with or without retinol (3×10^-6 M), 14HRR (6×10^-7 M) (fresh 14HRR was added every 12 hours), human serum (3%) or FCS (10%) at the cellular densities shown. Proliferation was assayed by tritiated thymidine incorporation into cellular DNA.\nFIG. 14B: BALB/c thymocytes (10^6 /ml) were added to microtiter plates coated with titrated amounts of anti-CD3e antibody with […] retinol or without, as indicated. Proliferation was measured in hexaduplicate wells on day 3 by ^3 H thymidine incorporation assay.\nPurified thymocytes (5×10^5 cells/well) were stimulated by TCR crosslinking with immobilized anti-CD3e antibody (FIG. 15A) or 0.4 μg/ml Con A (FIG. 15B) in serum-free ITLB medium. The indicated amounts of retinoids were added either once at the beginning of the experiment (marked as \"1×\") or every 12 hours thereafter (marked as \"6×\"). DNA synthesis was measured after 72 hours by tritiated thymidine uptake as described.\nPurified thymocytes (10^5 cells/well) were activated with anti-CD3 antibody in ITLB medium with or without retinol (3×10^-6 M), 14HRR (6×10^-7, added every 12 hours or human serum (3%)). DNA synthesis was measured daily by a 4 hour pulse of tritiated thymidine.\nThymocytes (5×10^4 /well) were activated by immobilized anti-CD3 mAb in medium ITLB. Retinol (2×10^-6 M) was added at initiation of culture, or delayed by 12 hours and 24 hours, respectively, or omitted altogether. ^3 H thymidine pulses of 4 hours were used to measure DNA synthesis of hexaduplicate wells.\nThymuses of 3 to 6-week-old BALB/c mice were teased in serum-free RPMI medium supplemented with 1% BSA, 10^-6 M linoleic acid and antibiotics. Depletion of accessory cells was achieved by two cycles of complement-dependent lysis with a mixture of anti-IA^d (5 μg/ml) and anti-IE^d (1:500 diluted ascites fluid). Briefly, cells were incubated on ice for 30 minutes with Ia antibodies, spun down, resuspended in 1:40 diluted rabbit complement, and incubated at 37° C. for 45 minutes. Incubations and two subsequent washes were carried out with RPMI medium containing 1% BSA. Cell viability was evaluated by trypan blue dye exclusion. To determine the extent of depletion of accessory cells, samples were stained with FITC-conjugated anti-Fc receptor antibody and analyzed by flow cytometry on a FACScan instrument (Becton Dickinson).\nCells were cultured in serum-free medium, referred to as ITLB, containing RPMI 1640 supplemented with 8×10^-7 M insulin (5 μg/ml), 7×10^-8 M transferrin (5 μg/ml), 2×10^-6 M linoleic acid, 2×10^-6 M delipidated BSA (0.12 mg/ml), 2 mM L-glutamine, 1 mM sodium pyruvate and antibiotics. They were seeded into 96-well flat-bottom plates at varying cellular densities in a final volume of 100 μl. In control experiments, cells were cultured in medium containing 10% FCS or 3% human serum and 5×10^-5 M 2ME. T cells and thymocytes were activated with immobilized, purified anti-mAb CD3e or by the addition of Con A in the presence or absence of different concentrations of retinoids. Unless indicated otherwise, retinoids were replenished every 12 hours to maintain a reasonably constant concentration of these labile compounds in culture. […] Cultures were carried out in duplicate. Plates were incubated at 37° C. in a humidified 5% CO2 atmosphere. Cellular proliferation was determined by [^3 H] thymidine uptake (0.5 uCi/well; New England Nuclear, Boston, Mass.) after the incubation times indicated for each experiment with a 4 hour labeling pulse."}, "[2]": {"tested_on": "5/2 cells", "assay": "B-cell growth assay ([3H]-thymidine uptake), lymphoblastoid 5/2 cells in serum-free HB101 medium", "format": "cell-based, human", "experimental": "Washed 5/2 cells (5,000/well) were incubated for 72 hours in HB101 medium with the indicated amounts of retinoids. DNA synthesis was measured by [^3 H] thymidine uptake. The measurements were done in triplicate. The SDs were <15%.\nIn FIGS. 4B to 4D, 5/2 cells were washed twice and seeded at a concentration of 150,000 cells/ml in HB 101 medium. Triplicate samples of 100 μl of cell suspension were removed daily and pulsed for 6 hours with [^3 H] thymidine. Means are shown. The SDs were never >20%.\nP3 was purified as described in the Experimental Details section. 5/2 cells (5,000/well) were incubated for 72 hours in HB101 medium and refed with the indicated amount of retinoid daily. DNA synthesis was measured by [^3 H]-thymidine uptake. P3 is bioactive down to a concentration of 10-^8 M (FIG. 8). […] This is due either to chemical instability or to a more rapid metabolic degradation of P3 by the cells.\nThe human EBV-transformed B-cell line 5/2 was established from the peripheral blood of a healthy donor. The cell line was grown in RPMI 1640 supplemented with 8% fetal calf serum, L-glutamine (2 mM), and antibiotics. The cell line was tested regularly for mycoplasma infections and was consistently negative.\nThe assay system is a modification of the assay developed by Blazar et al. (12). […] Assays were done in 96 well microtiter plates in a final volume of 200 μl/well or in 25 cm^2 tissue culture flasks. The cells in the microtiter plates were cultured for 72 hours and cell growth was determined by labeling for the last 16 hours with 0.8 μCi/well of [^3 H]thymidine (sp. act. 6.7 Ci/mmol). Growth in the culture flasks was determined in three aliquots of 100 μl taken at 24 hours intervals and cultured in the presence of 0.8 μCi of [^3 H]thymidine for an additional 6 hour period. To determine the viable cell number, nine aliquots per time point were differentially counted in a Neubauer chamber in the presence of trypan blue."}, "[3]": {"tested_on": "T cells", "assay": "T cell activation and proliferation, retinol cofactor requirement", "format": "cell-based, murine", "method_in_brief": "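Cells were cultured at 37 °C in 5% CO2, with control cultures in medium containing 10% FCS or 3% human serum plus 5×10^-5 M 2ME. Proliferation was read as [3H]thymidine incorporation (0.5 uCi/well, 4 h pulse) after the stated culture times, by scintillation counting. Values are means of duplicate or six replicate cultures.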"}, "[4]": {"tested_on": "activated human thymocytes", "details": "cited from earlier work"}},
  "note": "“Also recorded” adds a separate entry of the source. Read-outs that look alike come from different tables or passages of the source.",
  "data": [
    {"smiles": "CC(C=CC=C(C)C(O)CO)=CC=C1C(C)=CCCC1(C)C", "note": "(centres unmarked) [14HRR, 14-hydroxy-4,14-retro-retinol]", "values": [
      {"measurement": "effectiveness relative to retinol", "setting": "[1]", "value": "as potent as retinol"},
      {"measurement": "dose optimum", "setting": "[1]; provided at 12 hour intervals", "value": 500, "unit": "nM"},
      {"measurement": "proliferative response of anti-CD3e activated thymocytes", "setting": "[1]", "value": "vigorous responses were elicited"},
      {"measurement": "growth kinetics over four days", "setting": "[1]", "value": "exponential growth"},
      {"measurement": "effect of a single addition at start of culture", "setting": "[1]; single addition", "value": "ineffective; also recorded: does not enable sustained proliferation; also recorded: insufficient to drive T cell proliferation"},
      {"measurement": "growth of 5/2 cells", "setting": "[2]", "value": "active and capable of replacing retinol"},
      {"measurement": "minimal effective concentration", "setting": "[2]; Homo sapiens, B-cell, 72 hours, refed daily, read-out: lowest bioactive concentration (bioactive down to)", "value": 0.01, "unit": "µM"},
      {"measurement": "ability to substitute for retinol in T cell activation (words)", "setting": "[3]", "value": "effectively supports T cell activation in conjunction with a mitogen in lieu of retinol; also recorded: capable of supporting activation and sustaining proliferation of T cells; also recorded: capable of supporting T cell activation and proliferation in the absence of any extraneous source of retinal"}
    ]},
    {"smiles": "CC1=C(/C=C/C(C)=C/C=C/C(C)=C/C(=O)O)C(C)(C)CCC1", "note": "[all-trans retinoic acid]", "values": [
      {"measurement": "effectiveness relative to retinol", "setting": "[1]", "value": "completely inactive"},
      {"measurement": "support of growth of activated human thymocytes", "setting": "[4]", "value": "The same is true for activated human thymocytes"},
      {"measurement": "ability to substitute for retinol in T cell activation (words)", "setting": "[3]; listed as retinoic acid", "value": "cannot be satisfied by retinoic acid; also recorded: T lymphocytes neither respond to externally provided retinoic acid"}
    ]},
    {"smiles": "CC1=C(/C=C/C(C)=C/C=C/C(C)=C/CO)C(C)(C)CCC1", "note": "[retinol, all-trans retinol]", "values": [
      {"measurement": "reduction of sufficient retinol concentration with repeated feeding", "setting": "[1]; replenished twice daily, 3-day culture", "value": "five- to ten-fold lower"},
      {"measurement": "proliferative response of anti-CD3e activated thymocytes", "setting": "[1]", "value": "vigorous responses were elicited"},
      {"measurement": "growth kinetics over four days", "setting": "[1]", "value": "exponential growth"},
      {"measurement": "growth of 5/2 cells", "setting": "[2]", "value": "enable 5/2 cells to grow"},
      {"measurement": "support of growth of activated human thymocytes", "setting": "[4]", "value": "The same is true for activated human thymocytes"},
      {"measurement": "T cell activation in FCS-containing medium", "setting": "[3]; FCS-containing medium, absence of APC", "value": "no activation in the absence of APC, whether or not additional retinol is supplied"}
    ]}
  ]
}
